According to US9085576B2 (AMGEN INC., priority 2013, dated 2015):

What was measured:
Cathepsin D (Cat D) = Cathepsin D (Cat D) (Homo sapiens (Human), UniProt P07339); assay: In vitro enzymatic Cathepsin D (Cat D) FRET assay; format: biochemical; settings: read-out: CatD IC50
BACE = BACE (Homo sapiens (Human), UniProt P56817); assay: In vitro BACE cell-based assay (Aβ40 in conditioned medium, sandwich ELISA)
[1] = target: Beta Secretase enzyme (BACE) (Homo sapiens (Human), UniProt P56817); assay: In vitro enzymatic BACE FRET assay; format: biochemical; settings: read-out: BACE1 Enzyme assay IC50
Abeta 40 = assay: In vivo inhibition of beta-secretase: Abeta 40 reduction in CSF and brain of the rat; settings: after 4 hrs; for % reduction of rat CSF levels at 10 pmk / % reduction of rat brain levels at 10 mpk: 10 mpk

BACE, sequence (P56817 46-501, species assumed): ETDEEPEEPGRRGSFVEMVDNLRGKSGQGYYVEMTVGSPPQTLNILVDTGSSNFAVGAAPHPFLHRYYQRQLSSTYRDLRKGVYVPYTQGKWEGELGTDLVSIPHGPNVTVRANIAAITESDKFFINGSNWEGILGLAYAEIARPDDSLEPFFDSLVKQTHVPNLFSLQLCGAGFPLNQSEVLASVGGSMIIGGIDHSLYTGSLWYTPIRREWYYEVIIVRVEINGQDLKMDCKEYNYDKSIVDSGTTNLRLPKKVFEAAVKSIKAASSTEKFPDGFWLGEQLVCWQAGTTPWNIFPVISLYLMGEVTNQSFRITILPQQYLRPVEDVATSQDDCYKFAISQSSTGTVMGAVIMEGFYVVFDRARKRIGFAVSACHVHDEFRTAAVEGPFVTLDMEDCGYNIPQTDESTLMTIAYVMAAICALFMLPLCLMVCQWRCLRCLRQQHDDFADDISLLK
Beta Secretase enzyme (BACE), sequence (P56817 46-501): as the sequence (P56817 46-501, species assumed) above
Cathepsin D (Cat D), sequence (P07339 65-412, species assumed): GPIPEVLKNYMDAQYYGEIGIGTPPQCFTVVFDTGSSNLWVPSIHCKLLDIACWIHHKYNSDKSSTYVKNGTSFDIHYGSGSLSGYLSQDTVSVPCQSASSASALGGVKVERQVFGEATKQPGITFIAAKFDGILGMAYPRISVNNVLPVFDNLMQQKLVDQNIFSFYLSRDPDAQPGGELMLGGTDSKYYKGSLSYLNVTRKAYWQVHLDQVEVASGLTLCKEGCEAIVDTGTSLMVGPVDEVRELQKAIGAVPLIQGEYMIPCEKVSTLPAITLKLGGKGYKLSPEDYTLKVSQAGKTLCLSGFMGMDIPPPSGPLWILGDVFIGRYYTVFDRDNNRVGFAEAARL

| SMILES | IC50 (Cathepsin D (Cat D)) | IC50 (BACE) | IC50 [1] | % reduction of rat CSF levels at 10 pmk (Abeta 40; Abeta 40 in rat CSF) | % reduction of rat brain levels at 10 mpk (Abeta 40; Abeta 40 in rat brain) | % reduction of rat CSF levels (3 mpk) (Abeta 40; Abeta 40 in rat CSF, 3 mpk) | % reduction of rat brain levels (3 mpk) (Abeta 40; Abeta 40 in rat brain, 3 mpk) |
| --- | --- | --- | --- | --- | --- | --- | --- |
| NC1=N[C@@](c2cc(NC(=O)c3ccc(OC(F)F)cn3)ccc2F)(C(F)F)[C@H]2C[C@H]2O1 [Example 312, N-(3-((1R,5S,6R)-3-amino-5-(difluoromethyl)-2-oxa-4-azabicyclo[4.1.0]hept-3-en-5-yl)-4-fluorophenyl)-5-(difluoromethoxy) picolinamide] | 442 µM | 0.0179 µM | 0.0377 µM | 30% | −1% |  |  |
| Cc1cc(NC(=O)c2ccc(C#N)cn2)cc([C@@]2(C(F)F)N=C(N)O[C@@H]3C[C@@H]32)c1F [Example 390, N-(3-((1R,5S,6R)-3-amino-5-(difluoromethyl)-2-oxa-4-azabicyclo[4.1.0]hept-3-en-5-yl)-4-fluoro-5-methylphenyl)-5-cyanopicolinamide] |  |  |  | 71% | 54% |  |  |
| NC1=N[C@@](c2cc(NC(=O)c3ccc(Cl)cn3)ccc2Cl)(C(F)F)[C@H]2C[C@H]2O1 [Example 99, N-(3-((1R,5S,6R)-3-amino-5-(difluoromethyl)-2-oxa-4-azabicyclo[4.1.0]hept-3-en-5-yl)-4-chlorophenyl)-5-chloropicolinamide] | 1050 µM | 0.0195 µM | 0.0227 µM | 63% | 58% |  |  |
| N#Cc1cnc(C(=O)Nc2ccc(F)c([C@@]3(C(F)F)N=C(N)O[C@@H]4C[C@@H]43)c2)c(Cl)c1 [Example 66, N-(3-((1R,5S,6R)-3-amino-5-(difluoromethyl)-2-oxa-4-azabicyclo[4.1.0]hept-3-en-5-yl)-4-fluorophenyl)-3-chloro-5-cyanopicolinamide] | 825 µM |  |  | 59% | 42% |  |  |
| N#Cc1cnc(C(=O)Nc2ccc(Cl)c([C@@]3(CF)N=C(N)O[C@@H]4C[C@@H]43)c2)c(Cl)c1 [Example 127] | 997 µM | 0.0078 µM | 0.0395 µM | 67% | 50% |  |  |
| NC1=N[C@@](c2cc(NC(=O)c3nn(C(F)F)cc3Cl)ccc2F)(C(F)F)[C@H]2C[C@H]2O1 [Example 163, N-(3-((1R,5S,6R)-3-amino-5-(difluoromethyl)-2-oxa-4-azabicyclo[4.1.0]hept-3-en-5-yl)-4-fluorophenyl)-4-chloro-1-(difluoromethyl)-1H-pyrazole-3-carboxamide] | 464 µM |  |  | 33% | 14% |  |  |
| CC#CCOc1cnc(C(=O)Nc2ccc(F)c([C@@]3(CF)N=C(N)O[C@@H]4C[C@@H]43)c2)cn1 [Example 199, N-(3-((1R,5S,6R)-3-amino-5-(fluoromethyl)-2-oxa-4-azabicyclo[4.1.0]hept-3-en-5-yl)-4-fluorophenyl)-5-(but-2-yn-1-yloxy)pyrazine-2-carboxamide] | 959 µM | 0.0005 µM | 0.0022 µM | 62% | 42% |  |  |
| N#Cc1ccc(C(=O)Nc2ccc(F)c([C@@]3(CF)N=C(N)O[C@@H]4C[C@@H]43)c2)nc1 [Example 192, N-(3-((1R,5S,6R)-3-amino-5-(fluoromethyl)-2-oxa-4-azabicyclo[4.1.0]hept-3-en-5-yl)-4-fluorophenyl)-5-cyanopicolinamide] | 591 µM | 0.0079 µM | 0.0256 µM | 81% | 71% |  |  |
| NC1=N[C@@](c2cc(NC(=O)c3ncc(Cl)cc3Cl)ccc2F)(C(F)F)[C@H]2C[C@H]2O1 [Example 71, N-(3-((1R,5S,6R)-3-amino-5-(difluoromethyl)-2-oxa-4-azabicyclo[4.1.0]hept-3-en-5-yl)-4-fluorophenyl)-3,5-dichloropicolinamide] | 478 µM |  |  | 80% | 73% |  |  |
| N#Cc1ccc(C(=O)Nc2ccc(Cl)c([C@@]3(C(F)F)N=C(N)O[C@@H]4C[C@@H]43)c2)nc1 [Example 93, N-(3-((1R,5S,6R)-3-amino-5-(difluoromethyl)-2-oxa-4-azabicyclo[4.1.0]hept-3-en-5-yl)-4-chlorophenyl)-5-cyanopicolinamide] | 1300 µM |  |  | 76% | 83% |  |  |
| N#Cc1ccc(C(=O)Nc2ccc(F)c([C@@]3(C(F)F)N=C(N)O[C@@H]4C[C@@H]43)c2)nc1 [Example 77, N-(3-((1R,5S,6R)-3-amino-5-(difluoromethyl)-2-oxa-4-azabicyclo[4.1.0]hept-3-en-5-yl)-4-fluorophenyl)-5-cyanopicolinamide] | 698 µM |  |  | 78% | 71% | 66 (3 mpk) % | 46 (3 mpk) % |

Second part, led by results:

| IC50 (Cathepsin D (Cat D)) | IC50 (BACE) | IC50 [1] | SMILES | % reduction of rat CSF levels at 10 pmk (Abeta 40; Abeta 40 in rat CSF) | % reduction of rat brain levels at 10 mpk (Abeta 40; Abeta 40 in rat brain) | % reduction of rat CSF levels (3 mpk) (Abeta 40; Abeta 40 in rat CSF, 3 mpk) | % reduction of rat brain levels (3 mpk) (Abeta 40; Abeta 40 in rat brain, 3 mpk) |
| --- | --- | --- | --- | --- | --- | --- | --- |
| 355 µM | 0.0359 µM | 0.0522 µM | COc1ccc(C(=O)Nc2cc(C)c(F)c([C@@]3(C(F)F)N=C(N)O[C@@H]4C[C@@H]43)c2)nc1 [Example 304, N-(3-((1R,5S,6R)-3-amino-5-(difluoromethyl)-2-oxa-4-azabicyclo[4.1.0]hept-3-en-5-yl)-4-fluoro-5-methylphenyl)-5-methoxypicolinamide] | 41% | 20% |  |  |
| 747 µM | 0.0551 µM | 0.043 µM | NC1=N[C@@](c2cc(NC(=O)c3cnc(OCC4CC4)cn3)ccc2F)(C(F)F)[C@H]2C[C@H]2O1 [Example 415, N-(3-((1R,5S,6R)-3-amino-5-(difluoromethyl)-2-oxa-4-azabicyclo[4.1.0]hept-3-en-5-yl)-4-fluorophenyl)-5-(cyclopropylmethoxy)pyrazine-2-carboxamide] | 27% | 14% |  |  |
| 988 µM | 0.0586 µM | 0.0845 µM | COc1ccc(C(=O)Nc2ccc(F)c([C@@]3(C(F)F)N=C(N)O[C@@H]4C[C@@H]43)c2)nc1 [Example 130, N-(3-((1R,5S,6R)-3-amino-5-(difluoromethyl)-2-oxa-4-azabicyclo[4.1.0]hept-3-en-5-yl)-4-fluorophenyl)-5-methoxypicolinamide] | 49% | 23% |  |  |
| 811 µM | 0.0141 µM | 0.0315 µM | Cc1cc(NC(=O)c2ncc(Cl)cc2F)cc([C@@]2(C(F)F)N=C(N)O[C@@H]3C[C@@H]32)c1F [Example 302, N-(3-((1R,5S,6R)-3-amino-5-(difluoromethyl)-2-oxa-4-azabicyclo[4.1.0]hept-3-en-5-yl)-4-fluoro-5-methylphenyl)-5-chloro-3-fluoropicolinamide] | 37% | 9% |  |  |
| 465 µM | 0.014 µM | 0.0305 µM | COc1cnc(C(=O)Nc2cc(C)c(F)c([C@@]3(C(F)F)N=C(N)O[C@@H]4C[C@@H]43)c2)cn1 [Example 299, N-(3-((1R,5S,6R)-3-amino-5-(difluoromethyl)-2-oxa-4-azabicyclo[4.1.0]hept-3-en-5-yl)-4-fluoro-5-methylphenyl)-5-methoxypyrazine-2-carboxamide] | 74% | 62% |  |  |
|  | 0.015 µM |  | NC1=N[C@@](c2cc(NC(=O)c3ncc(Br)cn3)ccc2F)(C(F)F)[C@H]2C[C@H]2O1 [Example 267, N-(3-((1R,5S,6R)-3-amino-5-(difluoromethyl)-2-oxa-4-azabicyclo[4.1.0]hept-3-en-5-yl)-4-fluorophenyl)-5-bromopyrimidine-2-carboxamide] | −1% | 11% |  |  |
| 327 µM | 0.0323 µM | 0.0377 µM | Cc1cc(OC(F)F)cnc1C(=O)Nc1ccc(F)c([C@@]2(C(F)F)N=C(N)O[C@@H]3C[C@@H]32)c1 [Example 237, N-(3-((1R,5S,6R)-3-amino-5-(difluoromethyl)-2-oxa-4-azabicyclo[4.1.0]hept-3-en-5-yl)-4-fluorophenyl)-5-(difluoromethoxy)-3-methylpicolinamide] | 72% | 67% |  |  |
| 1060 µM |  |  | C#C[C@H](C)Oc1cnc(C(=O)Nc2ccc(F)c([C@@]3(C(F)F)N=C(N)O[C@@H]4C[C@@H]43)c2)cn1 [Example 162, N-(3-((1R,5S,6R)-3-amino-5-(difluoromethyl)-2-oxa-4-azabicyclo[4.1.0]hept-3-en-5-yl)-4-fluorophenyl)-5-((S)-but-3-yn-2-yloxy)pyrazine-2-carboxamide] | 11% | −7% |  |  |
| 335 µM |  |  | Cc1cc(Cl)cnc1C(=O)Nc1cc(C)c(F)c([C@@]2(C(F)F)N=C(N)O[C@@H]3C[C@@H]32)c1 [Example 303, N-(3-((1R,5S,6R)-3-amino-5-(difluoromethyl)-2-oxa-4-azabicyclo[4.1.0]hept-3-en-5-yl)-4-fluoro-5-methylphenyl)-5-chloro-3-methylpicolinamide] | 57% | 50% |  |  |
| > 400 µM | > 15.6 µM | > 40 µM | COc1cnc(C(=O)Nc2ccc(F)c([C@]3(C)N=C(N)O[C@H]4C[C@H]43)n2)cn1 [Example 323, N-(6-((1S,5R,6S)-3-amino-5-methyl-2-oxa-4-azabicyclo[4.1.0]hept-3-en-5-yl)-5-fluoropyridin-2-yl)-5-methoxypyrazine-2-carboxamide] |  |  |  |  |
